{"source": "patent US9839214B2", "about": "“Solavetivone and 5-epi-beta-vertivone as pest repellants and pesticides” (EVOLVA, INC., priority 2012, dated 2017)", "key": {"[1]": {"tested_on": "adult bed bugs (Cimex lectularius)", "test": "Bed bug repellency on half-treated filter paper in Petri dish chambers, Day 1", "type": "in vivo", "details": "for Repellancy / Repellancy, Averages: 0.5% active and 0.1% BHT in acetone on filter paper; for Repellancy / Repellancy, Averages / # bed bugs on the treated filter paper / # bed bugs on the treated filter paper, Averages: Day 1; for Repellancy: 50 bed bugs; for Repellancy, Averages / # bed bugs on the treated filter paper, Averages: average of 0.5-24 hr readings; for # bed bugs on the treated filter paper / # bed bugs on the treated filter paper, Averages: 0.5% active and 0.1% BHT in acetone, of 50 bed bugs; for time for which bed bugs are repelled following treatment: 0.5% active, Day 1 test", "description": "A formulation, containing 0.5% solavetivone and 0.1% butylated hydroxytoluene (BHT) in acetone was tested for efficacy for repelling adult bed bugs (Cimex lectularius). Treatment chambers were created by cutting a circular hole in the bottom of 9-cm Petri dishes. A fine mesh nylon cloth was then glued to Petri dishes, covering the holes. The chambers were formed using the inverted Petri dishes with the screened bottoms serving as the tops and the lids forming the base of the chambers. The lids were secured with rubber bands. Five semi-circular pieces of filter paper, with a diameter of 9 cm were arranged so that they were evenly spaced on a sheet of aluminum foil. One (1) mL of 0.5% solavetivone solution, stored at ambient temperature and humidity, was applied to the filter papers. Five untreated semi-circular pieces were marked with the letter “c”, for control, on both sides in pencil or solvent resistant ink. One solavetivone-treated filter paper and one untreated filter paper were placed with the flat sides against each other, creating a full circle, in the lids of five 9-cm Petri dishes, serving as the treatment chambers described above, such that the entire surface of the lid was covered. Prior to addition of the bed bugs, the filter papers were confirmed to be completely dry and free of any residual acetone odor. Ten (10) bed bugs, having received a blood meal no more than 7 days before, were placed onto the untreated piece of paper and covered with the ventilated base of the Petri dish. The containers of each replicate were then kept at ambient laboratory temperature and humidity for the duration of the study. The distribution of the bed bugs on the treated and untreated filter papers was recorded at 0.5, 1, 1.5, 2, and 24 hours after being placed in the containers. Observations were made in darkness with the aid of a red lens flashlight. Gloves and a dust mask were worn by the observer to reduce detection of the bed bugs and to minimize disturbance caused by the observer. Five additional treatment chambers were created as described above, except the treated filter paper was soaked with acetone with 0.1% BHT (control treatment), instead of the 0.5% solavetivone solution. Bed bug distribution in the control chambers were recorded as described for the treatment condition. The solavetivone treatment repellency was calculated from the following equation: R=[(C−T)/C]*100, where R is the % repellency, C is the fraction of bed bugs on the acetone-treated filter papers, and T is the fraction of bed bugs on the solavetivone-treated filter papers. […] A formulation, containing 0.5% 5-epi-β-vetivone and 0.1% butylated hydroxytoluene (BHT) in acetone was tested for efficacy for repelling adult bed bugs (Cimex lectularius). Treatment chambers were prepared as described in Example 1A. Five semi-circular pieces of filter paper, with a diameter of 9 cm were arranged so that they were evenly spaced on a sheet of aluminum foil. One (1) mL of 0.5% 5-epi-β-vetivone solution, stored at ambient temperature and humidity, was applied to the filter papers. Five untreated semi-circular pieces were marked with the letter “c”, for control, on both sides in pencil or solvent resistant ink. One 5-epi-β-vetivone-treated filter paper and one untreated filter paper were placed with the flat sides against each other, creating a full circle, in the lids of five 9-cm Petri dishes, serving as the treatment chambers described above, such that the entire surface of the lid was covered. Prior to addition of the bed bugs, the filter papers were confirmed to be completely dry and free of any residual acetone odor. Ten (10) bed bugs, having received a blood meal no more than 7 days before, were placed onto the untreated piece of paper and covered with the ventilated base of the Petri dish. The containers of each replicate were then kept at ambient laboratory temperature and humidity for the duration of the study. […]"}, "[2]": {"tested_on": "bed bug (Cimex lectularius)", "test": "Extended bed bug repellency, same treated chambers with new bed bugs, Day 2", "type": "in vivo", "details": "for Repellancy / Repellancy, Averages: 0.5% active and 0.1% BHT in acetone on filter paper; for Repellancy / # bed bugs on the treated filter paper: Day 2, new bed bugs; for Repellancy: 50 bed bugs; for Repellancy, Averages / # bed bugs on the treated filter paper, Averages / time for which bed bugs are repelled following treatment: Day 2; for Repellancy, Averages / # bed bugs on the treated filter paper, Averages: average of 0.5-24 hr readings; for # bed bugs on the treated filter paper / # bed bugs on the treated filter paper, Averages: 0.5% active and 0.1% BHT in acetone, of 50 bed bugs; for time for which bed bugs are repelled following treatment: 0.5% active, extended test", "description": "The bed bug (Cimex lectularius) treatment chambers described in part A above were used to test the duration of 0.5% solavetivone in acetone repellent effects. At the end of 24 hours, the old bed bugs were removed from each Petri dish and 10 new bed bugs were added to each dish, for a total of 50 bed bugs. The distribution of the new set of bed bugs was recorded at 0.5, 1, 1.5, 2, and 24 hours after their introduction to the chamber (Day 2). Observations were made and repellency was calculated as described in Section A above. […] The bed bug (Cimex lectularius) treatment chambers described in part A above were used to test the duration of 0.5% 5-epi-β-vetivone in acetone repellent effects. At the end of 24 hours, the old bed bugs were removed from each Petri dish and 10 new bed bugs were added to each dish, for a total of 50 bed bugs. The distribution of the new set of bed bugs was recorded at 0.5, 1, 1.5, 2, and 24 hours after their introduction to the chamber (Day 2). Observations were made and repellency was calculated as described in Section A above."}}, "data": [{"compound": "CC1=CC(=O)C[C@@H](C)[C@@]12CCC(=C(C)C)C2", "note": "[5-epi-β-vetivone]", "values": [{"measurement": "Repellancy", "setting": "[1]; 0.5 hr", "result": 88.0, "unit": "%"}, {"measurement": "Repellancy", "setting": "[1]; 1.0 hr", "result": 94.0, "unit": "%"}, {"measurement": "Repellancy", "setting": "[1]; 1.5 hr", "result": 98.0, "unit": "%"}, {"measurement": "Repellancy", "setting": "[1]; 2.0 hr", "result": 96.0, "unit": "%"}, {"measurement": "Repellancy", "setting": "[1]; 24.0 hr", "result": 100.0, "unit": "%"}, {"measurement": "Repellancy, Averages", "setting": "[1]", "result": 95.2, "unit": "%"}, {"measurement": "# bed bugs on the treated filter paper", "setting": "[1]; 0.5 hr", "result": 6}, {"measurement": "# bed bugs on the treated filter paper", "setting": "[1]; 1.0 hr", "result": 3}, {"measurement": "# bed bugs on the treated filter paper", "setting": "[1]; 1.5 hr", "result": 1}, {"measurement": "# bed bugs on the treated filter paper", "setting": "[1]; 2.0 hr", "result": 2}, {"measurement": "# bed bugs on the treated filter paper", "setting": "[1]; 24.0 hr", "result": 0}, {"measurement": "# bed bugs on the treated filter paper, Averages", "setting": "[1]", "result": 2.4}, {"measurement": "time for which bed bugs are repelled following treatment", "setting": "[1]", "result": "at least 24 hours"}, {"measurement": "Repellancy", "setting": "[2]; 0.5 hr after introduction", "result": 92.0, "unit": "%"}, {"measurement": "Repellancy", "setting": "[2]; 1.0 hr after introduction", "result": 94.0, "unit": "%"}, {"measurement": "Repellancy", "setting": "[2]; 1.5 hr after introduction", "result": 94.0, "unit": "%"}, {"measurement": "Repellancy", "setting": "[2]; 2.0 hr after introduction", "result": 92.0, "unit": "%"}, {"measurement": "Repellancy", "setting": "[2]; 24.0 hr after introduction", "result": 96.0, "unit": "%"}, {"measurement": "Repellancy, Averages", "setting": "[2]", "result": 93.6, "unit": "%"}, {"measurement": "# bed bugs on the treated filter paper", "setting": "[2]; 0.5 hr", "result": 4}, {"measurement": "# bed bugs on the treated filter paper", "setting": "[2]; 1.0 hr", "result": 3}, {"measurement": "# bed bugs on the treated filter paper", "setting": "[2]; 1.5 hr", "result": 3}, {"measurement": "# bed bugs on the treated filter paper", "setting": "[2]; 2.0 hr", "result": 4}, {"measurement": "# bed bugs on the treated filter paper", "setting": "[2]; 24.0 hr", "result": 2}, {"measurement": "# bed bugs on the treated filter paper, Averages", "setting": "[2]", "result": 3.2}, {"measurement": "time for which bed bugs are repelled following treatment", "setting": "[2]", "result": "at least 48 hours"}]}, {"compound": "C=C(C)[C@@H]1CC[C@@]2(C1)C(C)=CC(=O)C[C@H]2C", "note": "[Solavetivone, solavetivone]", "values": [{"measurement": "Repellancy", "setting": "[1]; 0.5 hr", "result": 92.0, "unit": "%"}, {"measurement": "Repellancy", "setting": "[1]; 1.0 hr", "result": 90.0, "unit": "%"}, {"measurement": "Repellancy", "setting": "[1]; 1.5 hr", "result": 92.0, "unit": "%"}, {"measurement": "Repellancy", "setting": "[1]; 2.0 hr", "result": 96.0, "unit": "%"}, {"measurement": "Repellancy", "setting": "[1]; 24.0 hr", "result": 98.0, "unit": "%"}, {"measurement": "Repellancy, Averages", "setting": "[1]", "result": 93.6, "unit": "%"}, {"measurement": "# bed bugs on the treated filter paper", "setting": "[1]; 0.5 hr", "result": 4}, {"measurement": "# bed bugs on the treated filter paper", "setting": "[1]; 1.0 hr", "result": 5}, {"measurement": "# bed bugs on the treated filter paper", "setting": "[1]; 1.5 hr", "result": 4}, {"measurement": "# bed bugs on the treated filter paper", "setting": "[1]; 2.0 hr", "result": 2}, {"measurement": "# bed bugs on the treated filter paper", "setting": "[1]; 24.0 hr", "result": 1}, {"measurement": "# bed bugs on the treated filter paper, Averages", "setting": "[1]", "result": 3.2}, {"measurement": "time for which bed bugs are repelled following treatment", "setting": "[1]", "result": "at least 24 hours"}, {"measurement": "Repellancy", "setting": "[2]; 0.5 hr after introduction", "result": 96.0, "unit": "%"}, {"measurement": "Repellancy", "setting": "[2]; 1.0 hr after introduction", "result": 96.0, "unit": "%"}, {"measurement": "Repellancy", "setting": "[2]; 1.5 hr after introduction", "result": 88.0, "unit": "%"}, {"measurement": "Repellancy", "setting": "[2]; 2.0 hr after introduction", "result": 90.0, "unit": "%"}, {"measurement": "Repellancy", "setting": "[2]; 24.0 hr after introduction", "result": 90.0, "unit": "%"}, {"measurement": "Repellancy, Averages", "setting": "[2]", "result": 92.0, "unit": "%"}, {"measurement": "# bed bugs on the treated filter paper", "setting": "[2]; 0.5 hr", "result": 2}, {"measurement": "# bed bugs on the treated filter paper", "setting": "[2]; 1.0 hr", "result": 2}, {"measurement": "# bed bugs on the treated filter paper", "setting": "[2]; 1.5 hr", "result": 6}, {"measurement": "# bed bugs on the treated filter paper", "setting": "[2]; 2.0 hr", "result": 5}, {"measurement": "# bed bugs on the treated filter paper", "setting": "[2]; 24.0 hr", "result": 5}, {"measurement": "# bed bugs on the treated filter paper, Averages", "setting": "[2]", "result": 4.0}, {"measurement": "time for which bed bugs are repelled following treatment", "setting": "[2]", "result": "at least 48 hours"}]}]}
